According to patent publication US20070154540A1 (KMSI CO., LTD., priority 2003, published 2007):

Columns and labels:
[1] = system: osteoarthritis-induced New Zealand white rabbits; test: Collagen levels in joint synovial fluids (Sirius Red staining); type: in vivo
From the text: To prepare an osteoarthritis animal model, New Zealand white rabbits underwent anterior cruciate ligament transection (ACLT) in joints of their two hind legs. After three days, the rabbits were forced to sustain movement for four weeks in a space of 5×5 m^3 to induce substantial osteoarthritis. […] The following Examples 3 to 10 were all performed using joints of the osteoarthritis-induced New Zealand white rabbits prepared as in this Example 2.
Total collagen levels in synovial fluids were measured by Sirius Red staining (Heide T. R. et al., Histochem. […]. Then, total collagen levels were determined by measuring absorbance at 550 nm. A standard curve was obtained by measuring absorbance at 550 nm for collagen type I (C1188, Sigma) of various concentrations of 0, 100, 200, 300, 400 and 500 μg. Using the standard curve, collagen levels in synovial fluids were determined.

[2] = system: osteoarthritis-induced New Zealand white rabbits; test: H&E staining and safranin-O staining of joint cartilage; type: in vivo; settings: apigenin treatment group compared to control group
From the text: Distal femurs were collected from experimental animals and fixed with 4% formalin (F8775, Sigma) for over 24 hrs. An area of the distal femur to be analyzed was sectioned into a 5-mm thickness, decalcified with 5% nitric acid (25, 811-3, Sigma) for over 24 hrs and embedded into paraffin to provide a paraffin block. The paraffin block was sectioned, and the resulting 4-μm sections were subjected to H&E staining and staining with a cartilage-specific dye, safranin-O (S2255, Sigma), and observed under an optical microscope to evaluate the condition of cartilage.

[3] = system: RAW 264.7 cells; test: LPS-induced NO production of macrophages (Griess); type: cell-based, mice; settings: 16 hrs, LPS alone 40, non-treated 2
Protocol: (§1) A macrophage cell line derived from mice, RAW 264.7 (KCLB 40071), was purchased from the Korean Cell Line Bank. RAW 264.7 cells were seeded in a density of 3×10^6 cells onto 60-mm culture dishes containing DMEM (Dulbecco's Modified Eagle Medium, 12800-017, Gibco) supplemented with 10% FBS (fetal bovine serum, 26140-079, Gibco), 100 U/ml of penicillin and 100 μg/ml streptomycin (15140-122, Gibco), and cultured at 37° C. under 5% CO2 and humidity for 24 hrs. To induce NO production, RAW 264.7 cells were treated with 500 ng/ml of an E. coli cell wall component, lipopolysaccharide (LPS, […], Sigma). […] Herein, LPS was dissolved in distilled water, and apigenin was dissolved in DMSO. Then, the culture medium and a Griess reagent were mixed at a ratio of 1:1 (100 μl: 100 μl) and allowed to stand at room temperature for 10 min. Thereafter, absorbance was measured at 540 nm using a spectrophotometer (Power Wave X340, Bio-Tek).

[4] = system: osteoarthritis-induced New Zealand white rabbits; test: Visual observation of joint cartilage in ACLT osteoarthritis-induced rabbits; type: in vivo
From the text: To prepare an osteoarthritis animal model, New Zealand white rabbits underwent anterior cruciate ligament transection (ACLT) in joints of their two hind legs. […] The following Examples 3 to 10 were all performed using joints of the osteoarthritis-induced New Zealand white rabbits prepared as in this Example 2. […] In contrast, in the PBS control group, the surface of joint cartilage was very rough due to the damage of the joint cartilage.

[5] = system: RAW 264.7 cells; test: LPS-induced prostaglandin E2 production of macrophages (immunoassay); type: cell-based, mice; settings: LPS alone 4156, non-treated 71
Protocol: as §1, with “Bio-Tek). RAW 264.7 cells were treated under the same conditions as in Example 12. PGE2 levels were measured using a PGE2 immunoassay kit (DE0100, R&D Systems). 100 μl of a culture medium was allowed to react with 50 μl of a conjugate and 50 μl of an antibody in the kit for two hours, and was then allowed to react with 200 μl of a developing reagent, pNPP, for one hour. Thereafter, absorbance was measured at 405 nm using a spectrophotometer (Power Wave X340, Bio-Tek).” for “Bio-Tek).”

O=c1cc(-c2ccc(O)cc2)oc2cc(O)cc(O)c12 [apigenin, 4′,5,7-trihydroxyflavone]
Collagen levels in joint synovial fluids ([1]; apigenin-treated right leg (+), four weeks after drug injection): 406.56 µg/mL | Collagen levels in joint synovial fluids ([1]; apigenin-treated right leg (+), four weeks after drug injection, listed as Apigenin): 406.6 ± 0.63 µg/mL | Collagen levels in joint synovial fluids ([1]; apigenin-treated right leg (+), two weeks after drug injection): 397.4 ± 0.69 µg/mL | Collagen levels in joint synovial fluids ([1]; non-treated left leg (−) of apigenin treatment group, four weeks after drug injection): about 1019.2 μg/ml | Collagen levels in joint synovial fluids ([1]; non-treated left leg (−) of apigenin treatment group, four weeks after drug injection, listed as Apigenin): 1019.2 ± 0.79 µg/mL | Collagen levels in joint synovial fluids ([1]; non-treated left leg (−) of apigenin treatment group, two weeks after drug injection): 749.4 ± 0.46 µg/mL | condition of cartilage by H&E and safranin-O staining [2]: damaged areas of cartilage were found to be restored | Nitrite ([3]; LPS 500 ng/ml + apigenin 10 μM): 32.2 µM | Nitrite ([3]; LPS 500 ng/ml + apigenin 20 μM): 22.2 µM | Nitrite ([3]; LPS 500 ng/ml + apigenin 40 μM): 10.1 µM | Nitrite ([3]; LPS 500 ng/ml + apigenin 80 μM): 9 µM | surface of joint cartilage (visual) ([4]; apigenin-treated right joint, 50 μg once per week for four weeks): visually smooth | cartilage in the left joint of the test group (visual) ([4]; non-treated left joint of apigenin group): improved to some extent | PGE2 ([5]; LPS 500 ng/ml + apigenin 10 μM): 3935 pg/mL | PGE2 ([5]; LPS 500 ng/ml + apigenin 20 μM): 3918 pg/mL | PGE2 ([5]; LPS 500 ng/ml + apigenin 40 μM): 1057 pg/mL | PGE2 ([5]; LPS 500 ng/ml + apigenin 80 μM): 300 pg/mL
